According to patent US20260001888A1, “PYRAZOLOPYRIMIDINE PDE9 INHIBITORS” (Merck Sharp & Dohme LLC, priority 2018, published 2026):
pKi: −log10 of the molar value.

The compounds below were run against Human PDE9 (PDE9A2) (Homo sapiens (Human), UniProt O76083) (assay: PDE9 IMAP fluorescence polarization (FP) inhibition assay). Settings: apparent inhibition constant; human PDE9A2, FAM-cGMP substrate 50 nM, room temperature.
Sequence of Human PDE9 (PDE9A2) (O76083 other isoform, or with tags, fused parts or gaps): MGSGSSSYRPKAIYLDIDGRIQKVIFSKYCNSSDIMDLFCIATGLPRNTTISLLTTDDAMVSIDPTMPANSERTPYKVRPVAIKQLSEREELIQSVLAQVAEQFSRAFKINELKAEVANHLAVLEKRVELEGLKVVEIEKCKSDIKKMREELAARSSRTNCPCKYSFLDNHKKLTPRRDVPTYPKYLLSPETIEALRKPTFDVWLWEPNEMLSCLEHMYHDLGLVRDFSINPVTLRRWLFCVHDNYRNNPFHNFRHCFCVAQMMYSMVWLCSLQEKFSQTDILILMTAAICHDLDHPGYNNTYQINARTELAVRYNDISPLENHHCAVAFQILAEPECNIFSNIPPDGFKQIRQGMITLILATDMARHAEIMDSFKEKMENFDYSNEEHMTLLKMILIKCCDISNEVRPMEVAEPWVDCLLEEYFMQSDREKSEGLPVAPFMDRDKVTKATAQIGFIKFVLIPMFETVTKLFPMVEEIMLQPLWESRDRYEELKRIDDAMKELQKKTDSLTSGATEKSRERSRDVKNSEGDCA
Format: biochemical
Procedure: The activity of the compounds in accordance with the present invention as PDE9 inhibitors may be readily determined without undue experimentation using a fluorescence polarization (FP) methodology that is well known in the art (Huang, W., et al., J. Biomol Screen, 2002, 7:215).
In a typical experiment the PDE9 inhibitory activity of the compounds of the present invention was determined in accordance with the following experimental method.
Human PDE9 (PDE9A2, GenBank Accession No. NM_001001567), full length with N-terminal GST tag, was purchased from BPS Bioscience. The fluorescence polarization assay for cyclic nucleotide phosphodiesterases was performed using an IMAP® FP kit supplied by Molecular Devices, Sunnyvale, CA (product #R8139). IMAP® technology has been applied previously to phosphodiesterase assays (Huang, W., et al., J. Biomol Screen, 2002, 7:215). Assays were performed at room temperature in 384-well microtiter plates with an incubation volume of 20.2 μL. Solutions of test compounds were prepared in DMSO and serially diluted with DMSO to yield 8 μL of each of 10 solutions differing by 3-fold in concentration, at 32 serial dilutions per plate. 100% inhibition is determined using a known PDE9 inhibitor, such as 1-(2-chlorophenyl)-6-[(2R)-3,3,3-trifluoro-2-methylpropyl]-1,5-dihydro-4H-pyrazolo[3,4-d]pyrimidine-4-one (BAY 73-6691) (Wunder et al, Mol. Pharmacol., 2005, 68 (6): 1775-81), (6-[(3S,4S)-4-methyl-1-(pyrimidin-2-ylmethyl) pyrrolidin-3-yl]-1-(tetrahydro-2H-pyran-4-yl)-1,5-dihydro-4H-pyrazolo[3,4-d]pyrimidin-4-one (PF-04447943) (Wager et al., ACS Chemical Neuroscience, 2010, 1:435-449). 0% of inhibition is determined by using DMSO (1% final concentrations). A Labcyte Echo 555 (Labcyte, Sunnyvale, CA) is used to dispense 200 nL from each well of the titration plate to the 384 well assay plate. Human PDE9A2 membrane preps were diluted to 1 ng/ml. […] PDE9 enzyme mix and compounds were mixed and incubated at room temperature for 30 min. Following which, FAMcGMP substrate was added, shaken and incubated for an additional 60 min at room temperature. The final concentration of human PDE9 membrane preparations were 0.5 ng/ml. The final concentration of FAM-cGMP was 50 nM. After the incubation period, the enzymatic reaction was stopped by addition of binding solution (IMAP-FP, Molecular Devices, comprised of 80% Solution A, 20% Solution B and a 1:600 dilution of binding reagent) to each well. The plates were shaken then incubated at room temperature for 1 h prior to determining the fluorescence polarization (mP) using a Perkin Elmer En Vision™ plate reader (Waltham, MA).
Fluorescence polarization (mP) was calculated from the parallel(S) and perpendicular (P) fluorescence of each sample well and the analogous values for the median control well, containing only substrate (So and Po), using the following equation: […]
Dose-inhibition profiles for each compound were characterized by fitting the mP data to a four-parameter equation given below. The apparent inhibition constant (KI), the maximum inhibition at the low plateau relative to “100% Inhibition Control” (Imax; e.g. 1=>same as this control), the minimum inhibition at the high plateau relative to the “0% Inhibition Control” (Imin, e.g. 0=>same as the no drug control) and the Hill slope (nH) are determined by a non-linear least squares fitting of the mP values as a function of dose of the compound using an in-house software based on the procedures described by Mosser et al., JALA, 2003, 8:54-63, using the following equation: […]
An apparent (Km) for FAM-labeled […] of 150 nM was determined in separate experiments through simultaneous variation of substrate and selected drug concentrations.
For CCC(c1ncccn1)N(C)c1nc2c(c(C#N)nn2C(C)c2ccc(C3CC3)nc2)c(=O)[nH]1 (single isomer, unassigned) [Example 1, 1-(1-(6-Cyclopropylpyridin-3-yl)ethyl)-6-(methyl(1-(pyrimidin-2-yl)propyl)amino)-4-oxo-4,5-dihydro-1H-pyrazolo[3,4-d]pyrimidine-3-carbonitrile], the pKi was 8.49. Compound CCC(c1ncccn1)N(C)c1nc2c(c(C#N)nn2C(C)c2ccc(C3CC3)nc2)c(=O)[nH]1 (single isomer, unassigned) [Example 2, 1-(1-(6-Cyclopropylpyridin-3-yl)ethyl)-6-(methyl(1-(pyrimidin-2-yl)propyl)amino)-4-oxo-4,5-dihydro-1H-pyrazolo[3,4-d]pyrimidine-3-carbonitrile] has a pKi of 8.28. Work on CCC(c1ncccn1)N(C)c1nc2c(c(C#N)nn2C(C)c2ccc(C3CC3)nc2)c(=O)[nH]1 (single isomer, unassigned) [Example 3, 1-(1-(6-Cyclopropylpyridin-3-yl)ethyl)-6-(methyl(1-(pyrimidin-2-yl)propyl)amino)-4-oxo-4,5-dihydro-1H-pyrazolo[3,4-d]pyrimidine-3-carbonitrile] yielded a pKi of 8.74. CCC(c1ncccn1)N(C)c1nc2c(c(C#N)nn2C(C)c2ccc(C3CC3)nc2)c(=O)[nH]1 (single isomer, unassigned) [Example 4, 1-(1-(6-Cyclopropylpyridin-3-yl)ethyl)-6-(methyl(1-(pyrimidin-2-yl)propyl)amino)-4-oxo-4,5-dihydro-1H-pyrazolo[3,4-d]pyrimidine-3-carbonitrile] was tested, and the pKi was 10.52. CC(c1ncccn1)N(C)c1nc2c(c(C#N)nn2C(C)c2ccc(C(F)(F)F)nc2)c(=O)[nH]1 (single isomer, unassigned) [Example 5, 6-[methyl(1-pyrimidin-2-ylethyl)amino]-4-oxo-1-[1-[6-(trifluoromethyl)-3-pyridyl]ethyl]-5H-pyrazolo[3,4-d]pyrimidine-3-carbonitrile] was tested, and the pKi was 8.64. In the case of CC(c1ncccn1)N(C)c1nc2c(c(C#N)nn2C(C)c2ccc(C(F)(F)F)nc2)c(=O)[nH]1 (single isomer, unassigned) [Example 6, 6-[methyl(1-pyrimidin-2-ylethyl)amino]-4-oxo-1-[1-[6-(trifluoromethyl)-3-pyridyl]ethyl]-5H-pyrazolo[3,4-d]pyrimidine-3-carbonitrile], the pKi was 8.21. CC(c1ncccn1)N(C)c1nc2c(c(C#N)nn2C(C)c2ccc(C(F)(F)F)nc2)c(=O)[nH]1 (single isomer, unassigned) [Example 7, 6-[methyl(1-pyrimidin-2-ylethyl)amino]-4-oxo-1-[1-[6-(trifluoromethyl)-3-pyridyl]ethyl]-5H-pyrazolo[3,4-d]pyrimidine-3-carbonitrile] gave a pKi of 7.68. CC(c1ncccn1)N(C)c1nc2c(c(C#N)nn2C(C)c2ccc(C(F)(F)F)nc2)c(=O)[nH]1 (single isomer, unassigned) [Example 8, 6-[methyl(1-pyrimidin-2-ylethyl)amino]-4-oxo-1-[1-[6-(trifluoromethyl)-3-pyridyl]ethyl]-5H-pyrazolo[3,4-d]pyrimidine-3-carbonitrile] showed a pKi of 6.61. In the case of CCC(c1ncccn1)N(C)c1nc2c(c(C#N)nn2C(C)c2ccc(C(F)(F)F)nc2)c(=O)[nH]1 (single isomer, unassigned) [Example 9, 6-[methyl(1-pyrimidin-2-ylpropyl)amino]-4-oxo-1-[1-[6-(trifluoromethyl)-3-pyridyl]ethyl]-5H-pyrazolo[3,4-d]pyrimidine-3-carbonitrile], the pKi was 9.85. CCC(c1ncccn1)N(C)c1nc2c(c(C#N)nn2C(C)c2ccc(C(F)(F)F)nc2)c(=O)[nH]1 (single isomer, unassigned) [Example 10, 6-[methyl(1-pyrimidin-2-ylpropyl)amino]-4-oxo-1-[1-[6-(trifluoromethyl)-3-pyridyl]ethyl]-5H-pyrazolo[3,4-d]pyrimidine-3-carbonitrile] showed a pKi of 8.00. CCC(c1ncccn1)N(C)c1nc2c(c(C#N)nn2C(C)c2ccc(C(F)(F)F)nc2)c(=O)[nH]1 (single isomer, unassigned) [Example 11, 6-[methyl(1-pyrimidin-2-ylpropyl)amino]-4-oxo-1-[1-[6-(trifluoromethyl)-3-pyridyl]ethyl]-5H-pyrazolo[3,4-d]pyrimidine-3-carbonitrile] gave a pKi of 7.61. For CCC(c1ncccn1)N(C)c1nc2c(c(C#N)nn2C(C)c2ccc(C(F)(F)F)nc2)c(=O)[nH]1 (single isomer, unassigned) [Example 12, 6-[methyl(1-pyrimidin-2-ylpropyl)amino]-4-oxo-1-[1-[6-(trifluoromethyl)-3-pyridyl]ethyl]-5H-pyrazolo[3,4-d]pyrimidine-3-carbonitrile], the pKi was 7.41. CCC(c1ncccn1)N(C)c1nc2c(c(C#N)nn2C(C)c2ccc(C(F)(F)F)cc2)c(=O)[nH]1 (single isomer, unassigned) [Example 13, 6-[methyl(1-pyrimidin-2-ylpropyl)amino]-4-oxo-1-[1-[4-(trifluoromethyl)phenyl]ethyl]-5H-pyrazolo[3,4-d]pyrimidine-3-carbonitrile] was tested, and the pKi was 8.28. For CCC(c1ncccn1)N(C)c1nc2c(c(C#N)nn2C(C)c2ccc(C(F)(F)F)cc2)c(=O)[nH]1 (single isomer, unassigned) [Example 14, 6-[methyl(1-pyrimidin-2-ylpropyl)amino]-4-oxo-1-[1-[4-(trifluoromethyl)phenyl]ethyl]-5H-pyrazolo[3,4-d]pyrimidine-3-carbonitrile], the pKi was 11.00. With CCC(c1ncccn1)N(C)c1nc2c(c(C#N)nn2C(C)c2ccc(C(F)(F)F)cc2)c(=O)[nH]1 (single isomer, unassigned) [Example 15, 6-[methyl(1-pyrimidin-2-ylpropyl)amino]-4-oxo-1-[1-[4-(trifluoromethyl)phenyl]ethyl]-5H-pyrazolo[3,4-d]pyrimidine-3-carbonitrile] the pKi was 8.55. Compound CCC(c1ncccn1)N(C)c1nc2c(c(C#N)nn2C(C)c2ccc(C(F)(F)F)cc2)c(=O)[nH]1 (single isomer, unassigned) [Example 16, 6-[methyl(1-pyrimidin-2-ylpropyl)amino]-4-oxo-1-[1-[4-(trifluoromethyl)phenyl]ethyl]-5H-pyrazolo[3,4-d]pyrimidine-3-carbonitrile] has a pKi of 7.96. CCC(c1ncc(C(F)F)cn1)N(C)c1nc2c(c(C#N)nn2C(C)c2ccc(C(F)(F)F)nc2)c(=O)[nH]1 (single isomer, unassigned) [Example 17, 6-[1-[5-(difluoromethyl)pyrimidin-2-yl]propyl-methyl-amino]-4-oxo-1-[1-[6-(trifluoromethyl)-3-pyridyl]ethyl]-5H-pyrazolo[3,4-d]pyrimidine-3-carbonitrile] was tested, and the pKi was 11.00. In the case of CCC(c1ncc(C(F)F)cn1)N(C)c1nc2c(c(C#N)nn2C(C)c2ccc(C(F)(F)F)nc2)c(=O)[nH]1 (single isomer, unassigned) [Example 18, 6-[1-[5-(difluoromethyl)pyrimidin-2-yl]propyl-methyl-amino]-4-oxo-1-[1-[6-(trifluoromethyl)-3-pyridyl]ethyl]-5H-pyrazolo[3,4-d]pyrimidine-3-carbonitrile], the pKi was 8.68. CCC(c1ncc(C(F)F)cn1)N(C)c1nc2c(c(C#N)nn2C(C)c2ccc(C(F)(F)F)nc2)c(=O)[nH]1 (single isomer, unassigned) [Example 19, 6-[1-[5-(difluoromethyl)pyrimidin-2-yl]propyl-methyl-amino]-4-oxo-1-[1-[6-(trifluoromethyl)-3-pyridyl]ethyl]-5H-pyrazolo[3,4-d]pyrimidine-3-carbonitrile] showed a pKi of 8.13.
